Reference: BindingDB's records for doi:10.1016/j.bmcl.2009.08.023 (Roche Palo Alto, 2009)

Target: Genome polyprotein (Hepatitis C virus genotype 1b (isolate Con1), UniProt Q9WMX2)
Test: Inhibition of […] 1b con1 NS5B polymerase assessed as [3H]UTP incorporation into acid insoluble RNA product

Chain of Genome polyprotein (Q9WMX2 2420-3010 limits assumed): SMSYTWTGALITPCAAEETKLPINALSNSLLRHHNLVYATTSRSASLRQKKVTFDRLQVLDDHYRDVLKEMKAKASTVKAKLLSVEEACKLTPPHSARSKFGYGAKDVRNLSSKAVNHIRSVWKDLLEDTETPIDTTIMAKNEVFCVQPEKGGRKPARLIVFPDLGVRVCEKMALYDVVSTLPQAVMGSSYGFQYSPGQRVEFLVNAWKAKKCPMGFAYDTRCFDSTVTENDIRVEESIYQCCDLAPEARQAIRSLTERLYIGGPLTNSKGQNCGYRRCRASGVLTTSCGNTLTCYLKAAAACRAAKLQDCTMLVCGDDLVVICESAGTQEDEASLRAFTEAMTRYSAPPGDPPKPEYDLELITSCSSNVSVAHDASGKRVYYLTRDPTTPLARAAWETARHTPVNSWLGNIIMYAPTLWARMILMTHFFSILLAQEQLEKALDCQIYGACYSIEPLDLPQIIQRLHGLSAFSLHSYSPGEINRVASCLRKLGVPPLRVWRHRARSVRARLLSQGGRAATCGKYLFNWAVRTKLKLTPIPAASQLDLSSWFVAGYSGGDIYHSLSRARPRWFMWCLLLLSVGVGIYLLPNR

IC50 | SMILES
8 nM | CC(C)(C)[C@H]1C(=O)C(C2=Nc3ccc(NS(C)(=O)=O)cc3S(=O)(=O)C2)C(=O)N1Cc1ccccc1 (stereo partly drawn) [N-[3-((S)-1-Benzyl-5-tert-butyl-4-hydroxy-2-oxo-2,5-dihydro-1H-pyrrol-3-yl)-1,1-dioxo-1,4-dihydro-1lambda*6*-benzo[1,4]thiazin-7-yl]-methanesulfonamide]
4 nM | CC(=O)C1C(C2C(=O)[C@H](C(C)(C)C)N(Cc3ccc(F)cc3)C2=O)=Nc2ccc(NS(C)(=O)=O)cc2S1(=O)=O (stereo partly drawn) [N-{2-Acetyl-3-[(S)-5-tert-butyl-1-(4-fluoro-benzyl)-4-hydroxy-2-oxo-2,5-dihydro-1H-pyrrol-3-yl]-1,1-dioxo-1,4-dihydro-1lambda*6*-benzo[1,4]thiazin-7-yl}-methanesulfonamide]
13 nM | CC(C)(C)[C@H]1C(=O)C(C2=Nc3ccc(NS(C)(=O)=O)cc3S(=O)(=O)C2)C(=O)N1Cc1ccc(F)cc1F (stereo partly drawn) [N-{3-[(S)-5-tert-Butyl-1-(2,4-difluoro-benzyl)-4-hydroxy-2-oxo-2,5-dihydro-1H-pyrrol-3-yl]-1,1-dioxo-1,4-dihydro-1lambda*6*-benzo[1,4]thiazin-7-yl}-methanesulfonamide]
8 nM | CC(C)(C)CCN1C(=O)C(C2=Nc3ccc(NS(C)(=O)=O)cc3S(=O)(=O)C2)C(=O)[C@@H]1C(C)(C)C (stereo partly drawn) [N-{3-[(S)-5-tert-Butyl-1-(3,3-dimethyl-butyl)-4-hydroxy-2-oxo-2,5-dihydro-1H-pyrrol-3-yl]-1,1-dioxo-1,4-dihydro-1lambda*6*-benzo[1,4]thiazin-7-yl}-methanesulfonamide]
5 nM | CC(C)(C)[C@H]1C(=O)C(C2=Nc3ccc(NS(C)(=O)=O)cc3S(=O)(=O)C2)C(=O)N1Cc1ccc(F)c(Cl)c1 (stereo partly drawn) [N-{3-[(S)-5-tert-Butyl-1-(3-chloro-4-fluoro-benzyl)-4-hydroxy-2-oxo-2,5-dihydro-1H-pyrrol-3-yl]-1,1-dioxo-1,4-dihydro-1lambda*6*-benzo[1,4]thiazin-7-yl}-methanesulfonamide]
4 nM | COc1cc(CN2C(=O)C(C3=Nc4ccc(NS(C)(=O)=O)cc4S(=O)(=O)C3)C(=O)[C@@H]2C(C)(C)C)ccc1F (stereo partly drawn) [N-{3-[(S)-5-tert-Butyl-1-(4-fluoro-3-methoxy-benzyl)-4-hydroxy-2-oxo-2,5-dihydro-1H-pyrrol-3-yl]-1,1-dioxo-1,4-dihydro-1lambda*6*-benzo[1,4]thiazin-7-yl}-methanesulfonamide]
5 nM | CC(C)CCN1C(=O)C(C2=Nc3ccc(NS(C)(=O)=O)cc3S(=O)(=O)C2)C(=O)[C@@H]1C(C)(C)C (stereo partly drawn) [N-{3-[(S)-5-tert-Butyl-4-hydroxy-1-(3-methyl-butyl)-2-oxo-2,5-dihydro-1H-pyrrol-3-yl]-1,1-dioxo-1,4-dihydro-1lambda*6*-benzo[1,4]thiazin-7-yl}-methanesulfonamide]
